Patent publication US12439920B2, “Pyridine n-oxide compound and pest control agent” (Nippon Soda Co., Ltd., priority 2019, dated 2025)

Experiments:
Type in all cases: in vivo
Aphis craccivora = assay: Test of efficacy on Aphis craccivora (spray on black-eyed peas); conditions: 125 ppm; sprayed; nymphs on black-eyed peas; after 4 days
Description: (§1) 5 parts of the compound of the present invention, 93.6 parts of dimethylformamide, and 1.4 parts of polyoxyethylene alkyl aryl ether were mixed and dissolved to prepare emulsion (I) containing 5% of the active ingredient.
(§2) An insecticidal rate was calculated according to the following expression: Insecticidal rate (%)=(The number of dead insects/The number of tested insects)×100 A control rate was calculated according to the following expression: Control rate (%)={1−(Nt)/(Nc)}×100 • Nc: The number of parasites in an untreated plot • Nt: The number of parasites in a spray treated plot
Seedlings of black-eyed peas were raised in 10-cm pots. Aphis craccivora nymphs were inoculated onto primary leaves. The emulsion (I) was diluted with water such that the concentration of the compound of the present invention was 125 ppm. The dilution was sprayed to the black-eyed peas parasitized by the Aphis craccivora nymphs. The black-eyed peas were placed in a thermostat chamber having a temperature of 25° C. and a humidity of 60%. Life and death of Aphis craccivora were determined after 4 days from the spraying, and the insecticidal rate was calculated. The test was conducted in duplicate.

[1] = system: Phyllotreta striolata adults; assay: Test of efficacy on Phyllotreta striolata (spray on Qing geng cai seedlings); conditions: 125 ppm, sprayed on Qing geng cai seedlings, after 7 days
Description: as §1, §2
The emulsion (I) was diluted with water such that the concentration of the compound of the present invention was 125 ppm to prepare a test chemical. The dilution was sprayed to Qing geng cai seedlings (at the seventh true leaf stage) planted in 10-cm pots. The Qing geng cai seedlings were dried in air and then placed in a plastic cup. Ten Phyllotreta striolata adults were released thereto. The plastic cup was stored in a thermostat chamber having a temperature of 25° C. and a humidity of 65%. Life and death were determined after 7 days from the release of the insects, and the insecticidal rate was calculated. The test was conducted in duplicate.

Plutella xylostella [2] = assay: Test of soil irrigation treatment against Plutella xylostella; conditions: investigated after 3 days; for Control rate % 21 days after: first instar larvae inoculated 21 days after transplant; for Control rate % 28 days after: first instar larvae inoculated 28 days after transplant
Description: 5 parts of the compound of the present invention, 93.6 parts of dimethylformamide, and 1.4 parts of polyoxyethylene alkyl aryl ether were mixed and dissolved to prepare emulsion (I) containing 5% of the active ingredient. An insecticidal rate was calculated according to the following expression: Insecticidal rate (%)=(The number of dead insects/The number of tested insects)×100 A control rate was calculated according to the following expression: Control rate (%)={1−(Nt)/(Nc)}×100 • Nc: The number of parasites in an untreated plot • Nt: The number of parasites in a spray treated plot The emulsion (I) was diluted with water such that the concentration of the compound of the present invention was 500 ppm or 250 ppm. Then, 500 mL of the dilution was subjected to irrigation treatment per 128-hole cell tray in which cabbage seedlings were planted. The cell seedlings were transplanted to No. 4 pots and maintained in a thermostat chamber having a temperature of 25° C. and a humidity of 65%. Then, 50 first instar larvae of Plutella xylostella were inoculated on the whole of a cabbage after 21 days and 28 days from the transplant, respectively. The life and the death of Plutella xylostella were investigated after 3 days, and a control rate was calculated according to the following expression. The test was conducted in quadruplicate. Control rate (%)={1−(Nt)/(Nc)}×100 • Nc: The number of parasites in an untreated plot • Nt: The number of parasites in a spray treated plot

Musca domestica = assay: Test of efficacy on Musca domestica (treated lump sugar); conditions: 100 ppm on lump sugar; female adults; after 24 hours
Description: as §2
The compound of the present invention was diluted with acetone, and the dilution was added dropwise to 1 g of lump sugar such that the concentration was 100 ppm. The lump sugar was placed in a plastic cup, ten Musca domestica female adults were released, and a lid was put on the cup. The plastic cup was stored at 25° C. Life and death were determined after 24 hours from the release of the insects, and the insecticidal rate was calculated. The test was conducted in duplicate.

Plutella xylostella [3] = assay: Test of efficacy on Plutella xylostella (cabbage leaf dip); conditions: 125 ppm; cabbage leaves dipped 30 seconds; second instar larvae; after 3 days
Description: 5 parts of the compound of the present invention, 93.6 parts of dimethylformamide, and 1.4 parts of polyoxyethylene alkyl aryl ether were mixed and dissolved to prepare emulsion (I) containing 5% of the active ingredient. An insecticidal rate was calculated according to the following expression: Insecticidal rate (%)=(The number of dead insects/The number of tested insects)×100 A control rate was calculated according to the following expression: Control rate (%)={1−(Nt)/(Nc)}×100 • Nc: The number of parasites in an untreated plot • Nt: The number of parasites in a spray treated plot The emulsion (I) was diluted with water such that the concentration of the compound of the present invention was 125 ppm. Cabbage leaves were dipped in the dilution for 30 seconds. The resulting cabbage leaves were placed in a petri dish. Five second instar larvae of Plutella xylostella were released thereto. The petri dish was placed in a thermostat chamber having a temperature of 25° C. and a humidity of 60%. Life and death were determined after 3 days from the release of the insects, and the insecticidal rate was calculated. The test was conducted in duplicate.

Mythimna separata = assay: Test of efficacy on Mythimna separata (treated artificial feed); conditions: second instar larvae, 1 μl of emulsion (I) (5% active ingredient) in 0.8 g artificial feed, fifth day, 25° C.
Description: 5 parts of the compound of the present invention, 93.6 parts of dimethylformamide, and 1.4 parts of polyoxyethylene alkyl aryl ether were mixed and dissolved to prepare emulsion (I) containing 5% of the active ingredient. For a control, 93.6 parts of dimethylformamide and 1.4 parts of polyoxyethylene alkyl aryl ether were mixed and dissolved to prepare emulsion (II). An insecticidal rate was calculated according to the following expression: Insecticidal rate (%)=(The number of dead insects/The number of tested insects)×100 A control rate was calculated according to the following expression: Control rate (%)={1−(Nt)/(Nc)}×100 • Nc: The number of parasites in an untreated plot • Nt: The number of parasites in a spray treated plot 0.8 g of commercially available artificial feed (Insecta LFS, manufactured by Nosan Corp.) and 1 μl of the emulsion (I) were well mixed to obtain test feed. A plastic test container (capacity: 1.4 ml) was packed with 0.2 g of the test feed per treatment plot. Then, two second instar larvae of Mythimna separata were inoculated to each treatment plot. A plastic lid was put on the test container so as to prevent escape of the second instar larvae of Mythimna separata. The container was placed in a thermostat chamber of 25° C. On the fifth day, the insecticidal rate and the food intake were examined. The test was conducted in duplicate. […]

Aphis gossypii = assay: Test of efficacy on Aphis gossypii (spray on cucumbers); conditions: 125 ppm; sprayed; first instar larvae on cucumbers; after 5 days
Description: 5 parts of the compound of the present invention, 93.6 parts of dimethylformamide, and 1.4 parts of polyoxyethylene alkyl aryl ether were mixed and dissolved to prepare emulsion (I) containing 5% of the active ingredient. An insecticidal rate was calculated according to the following expression: Insecticidal rate (%)=(The number of dead insects/The number of tested insects)×100 A control rate was calculated according to the following expression: Control rate (%)={1−(Nt)/(Nc)}×100 • Nc: The number of parasites in an untreated plot • Nt: The number of parasites in a spray treated plot Cucumbers were sown in a 10-cm pot. An Aphis gossypii female adult was released to the cucumbers after 10 days from sprouting. On the next day, born first instar larvae were left, and the female adult was removed. Emulsion (I) was diluted with water such that the concentration of the compound of the present invention was 125 ppm. The dilution was sprayed to the cucumbers. The cucumbers were placed in a thermostat chamber having a temperature of 25° C. and a humidity of 60%. Life and death of Aphis gossypii were determined after 5 days, and the insecticidal rate was calculated.

[4] = 250 ppm soil irrigation of cabbage seedlings
[5] = 500 ppm soil irrigation of cabbage seedlings

Question: For CCS(=O)(=O)c1cc(C2CC2)c[n+]([O-])c1-c1nc2cc(S(=O)(=O)C(F)(F)F)ccc2o1 [A-1, 5-cyclopropyl-3-(ethylsulfonyl)-2-(5-((trifluoromethyl)sulfonyl)benzo[d]oxazol-2-yl)pyridine 1-oxide], which insecticidal rate (Aphis craccivora) is on record?
Answer: ≥ 80%

Question: And the insecticidal rate [1]?
Answer: ≥ 80%

Question: And the “Control rate % 21 days after” value (Plutella xylostella [2]; [4])?
Answer: 98%

Question: What about the “Control rate % 28 days after” value (Plutella xylostella [2]; [4]) of the same compound?
Answer: 99%

Question: What about the “Control rate % 21 days after” value (Plutella xylostella [2]; [5]) of the same compound?
Answer: 100%

Question: What about the “Control rate % 28 days after” value (Plutella xylostella [2]; [5]) of the same compound?
Answer: 100%

Question: And the insecticidal rate (Musca domestica)?
Answer: ≥ 80%

Question: And the insecticidal rate (Plutella xylostella [3])?
Answer: ≥ 80%

Question: And the insecticidal rate (Mythimna separata; stated as alternative to food intake ('or'))?
Answer: 100%

Question: And the “food intake as compared with the control plot” value (Mythimna separata; stated as alternative to insecticidal rate ('or'))?
Answer: ≤ 10%

Question: What about the insecticidal rate (Aphis gossypii) of the same compound?
Answer: ≥ 80%
